Measurements published in patent US5840697A, “Peptide inhibitors of calmodulin” (Torrey Pines Institute for Molecular Studies, priority 1996, dated 1998).
Like-named read-outs stand apart in the source and are kept apart here. Square brackets hold non-standard residues; d marks the D form. Peptide text beside a SMILES is read from it.

Legend:
calmodulin [1] = target: T1, calmodulin (Homo sapiens, UniProt P0DP23); experiment: calcium-dependent phosphodiesterase assay (calmodulin activity); type: biochemical
Summary of the method: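 Calmodulin (5 units) stimulation of Ca2+-activated phosphodiesterase measured by coupling cAMP→5'-AMP to 5'-nucleotidase, with released Pi read at 660 nm after ammonium molybdate reaction.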

[2] = tested on: normal rat kidney (NRK) cells; experiment: DNA synthesis ([3H]-thymidine incorporation) in cell culture; type: cell-based; settings: added at 5 hr
Procedure: Following the methods described in Lopez-Girona et al., Cell Calcium, 18:30-40 (1995), which is incorporated herein by reference, the effect of calmodulin inhibitory peptides on DNA synthesis was investigated. Specifically, peptides were added to culture media and assessed for their ability to inhibit the progression of normal rat kidney (NRK) cells into the S phase of the cell cycle; the DNA synthesis phase into the cell growth cycle. Such inhibition has been shown for existing anti-calmodulin drugs such as W13.
NRK cells were made quiescent by growing them to confluence in Dulbecco's minimum essential medium supplemented with 5% fetal calf serum (FCS), and then kept for 3-4 days in the same medium but with only 0.5% FCS. To allow them to re-enter the cell cycle, quiescent cells were trypsinized and subcultured at a lower density in fresh medium supplemented with 5% FCS.
DNA synthesis was analyzed by the measurement of [^3 H]-thymidine into whole cell DNA. NRK cells (10^5 per 35 mm plate) were pulse labeled for 1 hr with [methyl-^3 H]-thymidine (5 Ci/mmol) at 4 μCi/ml in Dulbecco's minimum essential medium supplemented with 5% FCS. Precipitation and solubilization of DNA was carried out as described in Cripps-Wolfman et al., J. Biol. Chem., 264:19478-19486 (1989), which is incorporated herein by reference.
The NRK cells stimulated to proliferate by addition of 5% FCS enter synchronously into the cell cycle and start the S phase after 12 hr reaching a maximum between 18 to 20 hr. The peptides were added at 5 hr (time at which the cells have already reenter the G1 phase). […] Similar results were found between the (D)-amino acid peptides and their (L)-counterpart.

calmodulin [3] = target: T1, calmodulin; experiment: electrophoretic band shift assay of peptide-calmodulin complexes; type: binding
Procedure: The following samples were subjected to electrophoresis in the gel lane indicated:
Because melittin is known to bind to calmodulin as described, for example, in Comte et al., Biochem. J., 209:269-272 (1983), in the above samples melittin is the positive control. The samples were incubated with calmodulin at 22° C. for 1 hr, and electrophoresed on a 10% acrylamide gel in Tris-glycine buffer under nondenaturating conditions as described in Head and Perry, Biochem. J., 137:145-154 (1974), which is incorporated herein by reference. The gel was then stained with coomasie blue.
The band shifts were also measured using a densitometer. Determination of band width by densitometry was done on the following samples: (1) calmodulin (1 nmol)+EDTA (2 nmol); (2) calmodulin (1 nmol)+Ca^2+ (1 nmol)+Ac-(D)Leu-(D)Trp-(D)Arg-(D)Ile-(D)Leu-(D)Trp-NH2 (100 nmol); and (3) calmodulin (1 nmol)+Ca^2+ (1 nmol).

phosphodiesterase = experiment: calcium-dependent phosphodiesterase assay in the absence of calmodulin; type: biochemical; settings: Table III
Procedure: To sample assay tubes were added the following components: assay buffer, 25 ul; CaCl2, 5 ul; 5'-nucleotidase, 7.5 ul (stock solution is 10 units/ml); calmodulin 5 units; calmodulin inhibitor peptides to obtain the desired final concentration of 50 μM. The volume was then made up to 200 ul with water. Control blanks were prepared replacing the peptides with water. The added components were thoroughly mixed and the tubes incubated at 30° C. for 10 min. Then, 25 ul of cAMP at 10.8 mM was added and incubated for 90 min at 30° C. The reaction was stopped by the addition of 50 ul of 55% trichloroacetic acid (TCA). The samples were centrifuged to remove the protein precipitate and the 50 ul of the supernatant was withdrawn for phosphate measurement. To the supernatant aliquot, 50 ul ammonium molybdate (0.55% in 1.1 N sulfuric acid) was added, followed by the addition of 5 ul of reducing agent (24 g sodium bisulfite, 2.4 g sodium sulfite, 0.5 g of 1-amino-2-naphthol-4-sulfonic acid in 200 ml of water), and the contents were mixed by vortexing. The absorbance of the solution were read at 660 nm using water as a blank, identified as control "Calmo."
As described above, one of the undesirable biological effects of existing calmodulin inhibitors is their non-specific binding to other proteins and the like. Therefore, the specificity of the instant inhibitory peptides for calmodulin was examined. The specificity was determined using the calcium-dependent phosphodiesterase assay described in Example I. The assay was carried out for the determination of IC50 values in the presence of calmodulin (IC50 value for calmodulin) and in the absence of calmodulin (IC50 for phosphodiesterase), the latter of which provides the effect of the inhibitory peptides on the phosphodiesterase.

IC50 (calmodulin [1]; Table I, assayed at 75, 50 and 12.5 μM, average of repeated assays, read-out: Average IC50): 5.4 µM | IC50 (calmodulin [1]; Table III, in the presence of calmodulin, read-out: IC50 (μM) for calmodulin): 7.1 µM | SPECIFICITY (calmodulin [1]; comparison of IC50 for phosphodiesterase with IC50 for calmodulin): 17 | band shift (mobility change) on binding to calmodulin (calmodulin [3]; in the presence of Ca2+): shifted relative to lane 8 | band shift (mobility change) on binding to calmodulin (calmodulin [3]; with EDTA (no calcium)): no band shift | IC50 (phosphodiesterase): 118 µM
Structure (SMILES): CC[C@@H](C)[C@@H](NC(=O)[C@@H](CCCNC(=N)N)NC(=O)[C@@H](Cc1c[nH]c2ccccc12)NC(=O)[C@@H](CC(C)C)NC(C)=O)C(=O)N[C@H](CC(C)C)C(=O)N[C@H](Cc1c[nH]c2ccccc12)C(N)=O [Ac-(D)Leu-(D)Trp-(D)Arg-(D)Ile-(D)Leu-(D)Trp-NH2] (Ac-[dL][dW][dR][dI][dL][dW]-NH2)
% DNA SYNTHESIS ([2]; 7.5 μM): 59% | % DNA SYNTHESIS ([2]; 15 μM): 25%
